Columns and labels:
WT HIV-1 (strain IIIB) = test: microbe, parasite or virus in culture; format: cell-based; settings: MT-4 cells; protection against virus-induced cytopathicity by 50%; mean of at least three experiments; read-out: EC50 HIV-1 IIIB
Description: (§1) The newly synthesized compounds were evaluated for their potency and cytotoxicity against the WT HIV-1 (strain IIIB) in MT-4 cells using the MTT method. The biological evaluation results are represented as EC50 values (anti-HIV-1 activity), CC50 values (cytotoxicity), and SI values (selectivity index, CC50/EC50 ratio).

MT-4 cells = test: Cytotoxicity in uninfected MT-4 cells, MTT method; format: cell-based; settings: uninfected MT-4 cells; viability reduced by 50%
Description: as §1

[1] = tested on: L100I mutant HIV-1 strain; test: Anti-HIV-1 activity against L100I mutant strain in MT-4 cells; format: cell-based; settings: MT-4 cells; read-out: EC50 L100I
[2] = tested on: E138K mutant HIV-1 strain; test: Anti-HIV-1 activity against E138K mutant strain in MT-4 cells; format: cell-based; settings: MT-4 cells; read-out: EC50 E138K
[3] = tested on: Y181C mutant HIV-1 strain; test: Anti-HIV-1 activity against Y181C mutant strain in MT-4 cells; format: cell-based; settings: MT-4 cells; read-out: EC50 Y181C
[4] = tested on: K103N mutant HIV-1 strain; test: Anti-HIV-1 activity against K103N mutant strain in MT-4 cells; format: cell-based; settings: MT-4 cells; read-out: EC50 K103N
[5] = tested on: Y188L mutant HIV-1 strain; test: Anti-HIV-1 activity against Y188L mutant strain in MT-4 cells; format: cell-based; settings: MT-4 cells; read-out: EC50 Y188L
[6] = tested on: F227L + V106A double RT mutant HIV-1 strain; test: Anti-HIV-1 activity against F227L + V106A double mutant strain in MT-4 cells; format: cell-based; settings: MT-4 cells; read-out: EC50 F227L + V106A
[7] = tested on: K103N + Y181C double RT mutant HIV-1 strain; test: Anti-HIV-1 activity against K103N + Y181C double mutant strain in MT-4 cells; format: cell-based; settings: MT-4 cells; read-out: EC50 K103N + Y181C
WT HIV-1 RT = WT HIV-1 RT (Human immunodeficiency virus type 1 group M subtype B, UniProt P03366); test: Enzymatic assay against WT HIV-1 RT; settings: read-out: IC50 WT HIV-1 RT polymerase activity
Description: The enzymatic assay against WT HIV-1 RT was conducted for most compounds (Table 2).

| Structure (SMILES) | EC50 (WT HIV-1 (strain IIIB)) [µM] | CC50 (MT-4 cells) [µM] | EC50 [1] [µM] | EC50 [2] [µM] | EC50 [3] [µM] | EC50 [4] [µM] | EC50 [5] [µM] | EC50 [6] [µM] | EC50 [7] [µM] | IC50 (WT HIV-1 RT) [µM] |
| --- | --- | --- | --- | --- | --- | --- | --- | --- | --- | --- |
| N#Cc1ccc(Nc2nccc(C(C#N)c3ccc(-c4ccccc4)cc3)n2)cc1 (racemic) [Compound 10a, (±)-4-((4-([1,1′-biphenyl]-4-yl(cyano)methyl)pyrimidin-2-yl)amino)benzonitrile] | 2.9 ± 1.89 | 30.8 ± 8.57 | > 30.8 | ≥ 12.6 | > 30.8 | > 30.8 | > 30.8 | > 30.8 | > 30.8 | – |
| N#Cc1ccc(Nc2nccc(C(C#N)c3ccc(-c4ccccc4)c(F)c3)n2)cc1 (racemic) [Compound 10b, (±)-4-((4-(cyano(2-fluoro-[1,1′-biphenyl]-4-yl)methyl)pyrimidin-2-yl)amino)benzonitrile] | 4.96 ± 0.56 | 27.3 ± 5.85 | ≥ 27.3 | 9.29 ± 1.37 | > 27.3 | > 27.3 | > 27.3 | > 27.3 | > 27.3 | 0.46 ± 0.162 |
| N#Cc1ccc(Nc2nccc(C(C#N)c3ccc(-c4ccccc4)cc3F)n2)cc1 (racemic) [Compound 10c, (±)-4-((4-(cyano(3-fluoro-[1,1′-biphenyl]-4-yl)methyl)pyrimidin-2-yl)amino)benzonitrile] | 0.33 ± 0.07 | 23.8 ± 4.48 | ≥ 10.3 | 1.69 ± 0.17 | 6.37 ± 0.78 | 10.3 ± 0.85 | > 23.8 | > 23.8 | > 23.8 | 0.062 ± 0.024 |
| Cc1ccccc1-c1ccc(C(C#N)c2ccnc(Nc3ccc(C#N)cc3)n2)c(F)c1 (racemic) [Compound 10d, (±)-4-((4-(cyano(3-fluoro-2′-methyl-[1,1′-biphenyl]-4-yl)methyl)pyrimidin-2-yl)amino)benzonitrile] | 0.43 ± 0.21 | 30.1 ± 1.94 | 3.67 ± 0.54 | 2.5 ± 0.33 | 4.89 ± 1.07 | 8.14 ± 1.82 | > 30.1 | > 30.1 | > 30.1 | 0.074 ± 0.024 |
| Cc1cccc(-c2ccc(C(C#N)c3ccnc(Nc4ccc(C#N)cc4)n3)c(F)c2)c1 (racemic) [Compound 10e, (±)-4-((4-(cyano(3-fluoro-3′-methyl-[1,1′-biphenyl]-4-yl)methyl)pyrimidin-2-yl)amino)benzonitrile] | 0.43 ± 0.07 | 26.9 ± 3.78 | 9.14 ± 3.61 | 3.59 ± 1.03 | > 26.9 | > 26.9 | > 26.9 | > 26.9 | > 26.9 | 0.101 ± 0.059 |
| Cc1ccc(-c2ccc(C(C#N)c3ccnc(Nc4ccc(C#N)cc4)n3)c(F)c2)cc1 (racemic) [Compound 10f, (±)-4-((4-(cyano(3-fluoro-4′-methyl-[1,1′-biphenyl]-4-yl)methyl)pyrimidin-2-yl)amino)benzonitrile] | 0.43 ± 0.09 | 30.9 ± 2.76 | 6.12 ± 1.62 | 2.55 ± 0.17 | 9.27 ± 1.14 | 8.08 ± 2.74 | > 30.9 | > 30.9 | > 30.9 | 0.093 ± 0.051 |
| COc1ccccc1-c1ccc(C(C#N)c2ccnc(Nc3ccc(C#N)cc3)n2)c(F)c1 (racemic) [Compound 10g, (±)-4-((4-(cyano(3-fluoro-2′-methoxy-[1,1′-biphenyl]-4-yl)methyl)pyrimidin-2-yl)amino)benzonitrile] | 0.61 ± 0.16 | 30.1 ± 2.31 | 4.27 ± 0.46 | 3.66 ± 0.19 | 7.79 ± 1.67 | 9.78 ± 1.6 | > 30 | > 30 | > 30 | 0.233 ± 0.125 |
| COc1cccc(-c2ccc(C(C#N)c3ccnc(Nc4ccc(C#N)cc4)n3)c(F)c2)c1 (racemic) [Compound 10h, (±)-4-((4-(cyano(3-fluoro-3′-methoxy-[1,1′-biphenyl]-4-yl)methyl)pyrimidin-2-yl)amino)benzonitrile] | 1.5 ± 0.24 | 30.7 ± 2.09 | 8.57 ± 1.26 | 6.16 ± 1.47 | > 30.7 | > 30.7 | > 30.7 | > 30.7 | > 30.7 | 0.219 ± 0.171 |
| COc1ccc(-c2ccc(C(C#N)c3ccnc(Nc4ccc(C#N)cc4)n3)c(F)c2)cc1 (racemic) [Compound 10i, (±)-4-((4-(cyano(3-fluoro-4′-methoxy-[1,1′-biphenyl]-4-yl)methyl)pyrimidin-2-yl)amino)benzonitrile] | 0.51 ± 0.42 | 183 | 31.6 ± 7.35 | 5.51 ± 1.06 | 8.57 ± 1.21 | 27 ± 3 | 50.1 ± 6.52 | 52.5 | > 183 | – |
| N#Cc1ccc(Nc2nccc(C(C#N)c3ccc(-c4ccccc4F)cc3F)n2)cc1 (racemic) [Compound 10j, (±)-4-((4-(cyano(2′,3-difluoro-[1,1′-biphenyl]-4-yl)methyl)pyrimidin-2-yl)amino)benzonitrile] | 0.21 ± 0.05 | 27.9 ± 3.56 | 6.06 ± 2.46 | 1.03 ± 0.17 | 3.4 ± 0.48 | 3.93 ± 0.65 | > 27.9 | > 27.9 | > 27.9 | 0.058 ± 0.032 |
| N#Cc1ccc(Nc2nccc(C(C#N)c3ccc(-c4ccc(F)cc4)cc3F)n2)cc1 (racemic) [Compound 10l, (±)-4-((4-(cyano(3,4′-difluoro-[1,1′-biphenyl]-4-yl)methyl)pyrimidin-2-yl)amino)benzonitrile] | 0.18 ± 0.16 | 25.6 ± 3.58 | 6.9 ± 1.76 | 0.98 ± 0.13 | 5.1 ± 0.51 | 6.87 ± 1.17 | > 25.6 | > 25.6 | > 25.6 | – |
| N#Cc1ccc(Nc2nccc(C(C#N)c3ccc(-c4cccc(Cl)c4)cc3F)n2)cc1 (racemic) [Compound 10n, (±)-4-((4-((3′-chloro-3-fluoro-[1,1′-biphenyl]-4-yl)(cyano)methyl)pyrimidin-2-yl)amino)benzonitrile] | 0.39 ± 0.1 | 27.6 ± 4.05 | 8.31 ± 1.2 | 2.67 ± 0.21 | 9.19 ± 2.05 | 7.2 ± 0.89 | > 27.6 | – | > 27.6 | 0.171 ± 0.132 |
| N#Cc1ccc(Nc2nccc(C(C#N)c3ccc(-c4ccc(Cl)cc4)cc3F)n2)cc1 (racemic) [Compound 10o, (±)-4-((4-((4′-chloro-3-fluoro-[1,1′-biphenyl]-4-yl)(cyano)methyl)pyrimidin-2-yl)amino)benzonitrile] | 0.18 ± 0.14 | 27.5 ± 7.3 | 5.28 ± 1.29 | 1.5 ± 0.28 | 7.49 ± 1.64 | 7.32 ± 0.87 | > 27.5 | > 27.5 | > 27.5 | – |
| N#Cc1ccc(Nc2nccc(C(C#N)c3ccc(-c4ccc(C#N)cc4)cc3F)n2)cc1 (racemic) [Compound 10p, (±)-4′-(cyano(2-((4-cyanophenyl)amino)pyrimidin-4-yl)methyl)-3′-fluoro-[1,1′-biphenyl]-4-carbonitrile] | 0.027 ± 0.015 | 36.4 | 1.21 ± 0.21 | 0.17 ± 0.03 | 0.87 ± 0.23 | 0.9 ± 0.27 | 9.81 ± 1.3 | – | > 36.4 | 0.059 ± 0.034 |
